In patent publication US20020137929A1, “1 - (3-heterocyclylphenyl) isothiourea, -isourea, -guanidine and -amidine herbicidal agents” (Intellectual Property Department, BASF Aktiengesellschaft, priority 1998, published 2002):

What was measured:
AMBEL (Ragweed, Common) = test: Postemergence herbicidal evaluation; format: in vivo, Ambrosia artemisifolia; conditions: postemergence
Outline: (§1)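 Two-week-old seedlings sprayed with compound in 50/50 acetone/water plus 0.5% TWEEN 20, at about 0.0156 to 0.500 kg/ha, nozzle at 40 psi. Kept in greenhouse; rated visually 4-5 weeks after treatment on a 0-9 scale versus control, repeat tests averaged.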

GALAP (Galium) = test: Postemergence herbicidal evaluation; format: in vivo, Galium aparine; conditions: postemergence
Outline: as §1

[1] = tested on: IPOSS (Morningglory Spp.); test: Postemergence herbicidal evaluation; format: in vivo, Ipomoea Spp.
Protocol: (§2) In the tests, seedling plants are grown in jiffy flats for about two weeks. The test compounds are dispersed in 50/50 acetone/water mixtures containing 0.5% TWEEN®20, a polyoxyethylene sorbitan monolaurate surfactant of Atlas Chemical Industries, in sufficient quantities to provide the equivalent of about 0.0156 kg to 0.500 kg per hectare of active compound when applied to the plants through a spray nozzle operating at 40 psi for a predetermined time. After spraying, the plants are placed on greenhouse benches and are cared for in accordance with conventional greenhouse procedures. From four to five weeks after treatment, the seedling plants are examined and rated according to the rating system set forth below. Where more than one test is involved for a given compound, the data are averaged.
(§3) Plant species employed in these evaluations are reported by header abbreviation, common name and scientific name.
(§4) Results of herbicide evaluation are expressed on a rating scale (0-9). The scale is based upon a visual observation of plant stand, vigor, malformation, size, chlorosis and overall plant appearance as compared with a control.

[2] = tested on: TRZAWR (Wheat, Winter, cv Riband); test: Postemergence herbicidal evaluation; format: in vivo, Triticum aestivum; conditions: postemergence
Outline: as §1

[3] = tested on: CHEAL (Lambsquarters, Common); test: Preemergence herbicidal evaluation; format: in vivo, Chenopodium album; conditions: rated 4-5 weeks after treatment
Outline: (§5)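 Seeds were planted in potting soil in cups, then sprayed preemergence with the test compound in aqueous acetone at about 0.0156 to 0.500 kg per hectare. Cups were kept under greenhouse conditions and visually rated 4–5 weeks after treatment on a 0–9 scale against an untreated control.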

[4] = tested on: IPOSS (Morningglory Spp.); test: Preemergence herbicidal evaluation; format: in vivo, Ipomoea Spp.; conditions: rated 4-5 weeks after treatment
Outline: as §5

ORYSAT (Rice, Tebonnet) [5] = test: Rice tolerance to post-transplant applications, flooded paddy conditions (Table III); format: in vivo, Oryza sativa, (L.) Tebonnet; conditions: post-transplant rice, flooded paddy, rated 3-4 weeks after treatment
Outline: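 Two ten-day-old Tebonnet seedlings transplanted into flooded silt loam (water 1.5 to 3 cm above soil); three days later the water surface was treated with compound in aqueous/acetone 50/50 at about 0.0313 to 0.500 kg/ha. Visual 0-9 injury rating versus control after three to four weeks in greenhouse.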

MOOVA (Monochoria) = test: Postemergence weed control under flooded paddy conditions; format: in vivo, Monochoria vaginalis; conditions: postemergence weeds, 3-4 weeks after treatment
Outline: (§6)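 Containers holding 3–5 cm weeds and rice at 1.5–2.5 leaves are flooded to 1.5–3 cm above soil. Compound in 50/50 v/v aqueous/acetone is then added directly to the water, about 0.0313–0.500 kg/ha. Plants are kept in the greenhouse and rated 0–9 visually at 3–4 weeks.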

[6] = tested on: SAGPY (Arrowhead (Pygmaea)); test: as above; format: in vivo, Sagittaria pygmaea; conditions: postemergence weeds, 3-4 weeks after treatment
Outline: as §6

ORYSAT (Rice, Tebonnet) [7] = test: Rice tolerance to post-transplant applications, flooded paddy conditions (Table IV); format: in vivo, Oryza sativa, (L.) Tebonnet; conditions: flooded paddy, post-transplant rice, 3-4 weeks after treatment
Outline: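 With weeds 3 to 5 cm tall and rice at the 1.5 to 2.5 leaf stage, containers were flooded and water held 1.5 to 3 cm above soil. Compounds in 50/50 v/v aqueous/acetone went into the flood water at about 0.0313 to 0.500 kg/ha a.i. Effects were visually rated 0–9 against controls after three to four weeks in the greenhouse.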

GLXMA (Soybean) [8] = test: Postemergence herbicidal evaluation; format: in vivo, Glycine max
Protocol: as §2, §3, §4

GLXMA (Soybean) [9] = test: Preemergence herbicidal evaluation; format: in vivo, Glycine max; conditions: rated 4-5 weeks after treatment
From the text: as §4
The preemergence herbicidal activity of the test compounds of the present invention is exemplified by the following tests in which the seeds of a variety of monocotyledonous and dicotyledonous plants are separately mixed with potting soil and planted on top of approximately one inch of soil in separate pint cups. After planting, the cups are sprayed with the selected aqueous acetone solution containing test compound in sufficient quantity to provide the equivalent of about 0.0156 to 0.500 kg per hectare of test compound per cup. The treated cups are then placed on greenhouse benches, watered and cared for in accordance with conventional greenhouse procedures. From four to five weeks after treatment, the tests are terminated and each cup is examined and rated according to the rating system provided in Example 37.
The compounds evaluated are reported by compound number given in Example 37.

O=C1CSC(=Nc2cc(N3C(=O)C4=C(CCCC4)C3=O)c(F)cc2Cl)N1c1ccccc1 [Compound 3, N-{4-chloro-2-fluoro-5-[(4-oxo-3-phenyl-2-thiazolidinylidene)amino]phenyl}-1-cyclohexene-1,2-dicarboximide]
2.0: AMBEL herbicidal rating (AMBEL (Ragweed, Common); rate 0.0313 kg/ha) | GALAP herbicidal rating (GALAP (Galium); rate 0.0313 kg/ha) | IPOSS herbicidal rating ([1]; rate 0.0313 kg/ha) | IPOSS preemergence herbicidal rating ([4]; rate 0.2500 kg/ha) | Herbicidal rating ORYSAT (rice tolerance) (ORYSAT (Rice, Tebonnet) [5]; 0.1250 kg/ha) | Herbicidal rating ORYSAT (rice tolerance) (ORYSAT (Rice, Tebonnet) [5]; 0.2500 kg/ha) | Herbicidal rating ORYSAT (rice tolerance) (ORYSAT (Rice, Tebonnet) [7]; rate 0.5000 kg/ha)
4.0: GALAP herbicidal rating (GALAP (Galium); rate 0.0625 kg/ha) | GALAP herbicidal rating (GALAP (Galium); rate 0.1250 kg/ha) | IPOSS herbicidal rating ([1]; rate 0.0625 kg/ha) | TRZAWR herbicidal rating ([2]; rate 0.5000 kg/ha) | IPOSS preemergence herbicidal rating ([4]; rate 0.5000 kg/ha)
4.5: Herbicidal rating MOOVA (MOOVA (Monochoria); rate 0.1250 kg/ha) | Herbicidal rating MOOVA (MOOVA (Monochoria); rate 0.2500 kg/ha)
3.0: TRZAWR herbicidal rating ([2]; rate 0.0625 kg/ha) | TRZAWR herbicidal rating ([2]; rate 0.2500 kg/ha) | Herbicidal rating ORYSAT (rice tolerance) (ORYSAT (Rice, Tebonnet) [5]; 0.5000 kg/ha)
5.5: Herbicidal rating MOOVA (MOOVA (Monochoria); rate 0.5000 kg/ha)
9.0: AMBEL herbicidal rating (AMBEL (Ragweed, Common); rate 0.5000 kg/ha) | GALAP herbicidal rating (GALAP (Galium); rate 0.0157 kg/ha) | GALAP herbicidal rating (GALAP (Galium); rate 0.5000 kg/ha) | IPOSS herbicidal rating ([1]; rate 0.1250 kg/ha) | IPOSS herbicidal rating ([1]; rate 0.5000 kg/ha) | CHEAL preemergence herbicidal rating ([3]; rate 0.0625 kg/ha) | CHEAL preemergence herbicidal rating ([3]; rate 0.1250 kg/ha) | CHEAL preemergence herbicidal rating ([3]; rate 0.2500 kg/ha) | CHEAL preemergence herbicidal rating ([3]; rate 0.5000 kg/ha)
6.0: AMBEL herbicidal rating (AMBEL (Ragweed, Common); rate 0.1250 kg/ha) | AMBEL herbicidal rating (AMBEL (Ragweed, Common); rate 0.2500 kg/ha) | GALAP herbicidal rating (GALAP (Galium); rate 0.2500 kg/ha) | CHEAL preemergence herbicidal rating ([3]; rate 0.0313 kg/ha)
2.5: TRZAWR herbicidal rating ([2]; rate 0.0157 kg/ha) | TRZAWR herbicidal rating ([2]; rate 0.0313 kg/ha) | TRZAWR herbicidal rating ([2]; rate 0.1250 kg/ha)
8.0: IPOSS herbicidal rating ([1]; rate 0.2500 kg/ha)
1.0: Herbicidal rating MOOVA (MOOVA (Monochoria); rate 0.0625 kg/ha) | Herbicidal rating ORYSAT (rice tolerance) (ORYSAT (Rice, Tebonnet) [7]; rate 0.1250 kg/ha) | Herbicidal rating ORYSAT (rice tolerance) (ORYSAT (Rice, Tebonnet) [7]; rate 0.2500 kg/ha)
0.0: AMBEL herbicidal rating (AMBEL (Ragweed, Common); rate 0.0625 kg/ha) | IPOSS preemergence herbicidal rating ([4]; rate 0.0313 kg/ha) | IPOSS preemergence herbicidal rating ([4]; rate 0.0625 kg/ha) | IPOSS preemergence herbicidal rating ([4]; rate 0.1250 kg/ha) | Herbicidal rating ORYSAT (rice tolerance) (ORYSAT (Rice, Tebonnet) [5]; 0.0625 kg/ha) | Herbicidal rating SAGPY ([6]; rate 0.0625 kg/ha) | Herbicidal rating SAGPY ([6]; rate 0.1250 kg/ha) | Herbicidal rating SAGPY ([6]; rate 0.2500 kg/ha) | Herbicidal rating SAGPY ([6]; rate 0.5000 kg/ha) | Herbicidal rating ORYSAT (rice tolerance) (ORYSAT (Rice, Tebonnet) [7]; rate 0.0625 kg/ha)

CN1C(=O)C(F)SC1=Nc1cc(N2C(=O)C3=C(CCCC3)C2=O)c(F)cc1Cl (stereo not drawn) [Compound 5, N-{4-chloro-2-fluoro-5-[(5-fluoro-3-methyl-4-oxo-2-thiazolidinylidene)amino]phenyl}-1-cyclohexene-1,2-dicarboximide]
9.0: AMBEL herbicidal rating (AMBEL (Ragweed, Common); rate 0.5000 kg/ha) | GALAP herbicidal rating (GALAP (Galium); rate 0.1250 kg/ha) | GALAP herbicidal rating (GALAP (Galium); rate 0.2500 kg/ha) | GALAP herbicidal rating (GALAP (Galium); rate 0.5000 kg/ha) | IPOSS herbicidal rating ([1]; rate 0.2500 kg/ha) | IPOSS herbicidal rating ([1]; rate 0.5000 kg/ha) | CHEAL preemergence herbicidal rating ([3]; rate 0.2500 kg/ha) | CHEAL preemergence herbicidal rating ([3]; rate 0.5000 kg/ha)
1.0: IPOSS herbicidal rating ([1]; rate 0.0313 kg/ha) | GLXMA preemergence herbicidal rating (GLXMA (Soybean) [9]; rate 0.0625 kg/ha) | GLXMA preemergence herbicidal rating (GLXMA (Soybean) [9]; rate 0.1250 kg/ha) | Herbicidal rating MOOVA (MOOVA (Monochoria); rate 0.1250 kg/ha)
4.5: GLXMA herbicidal rating (GLXMA (Soybean) [8]; rate 0.5000 kg/ha) | TRZAWR herbicidal rating ([2]; rate 0.1250 kg/ha) | TRZAWR herbicidal rating ([2]; rate 0.5000 kg/ha)
3.0: GLXMA herbicidal rating (GLXMA (Soybean) [8]; rate 0.0157 kg/ha) | GLXMA herbicidal rating (GLXMA (Soybean) [8]; rate 0.0313 kg/ha) | GLXMA herbicidal rating (GLXMA (Soybean) [8]; rate 0.0625 kg/ha) | TRZAWR herbicidal rating ([2]; rate 0.0157 kg/ha) | TRZAWR herbicidal rating ([2]; rate 0.0313 kg/ha)
8.0: GALAP herbicidal rating (GALAP (Galium); rate 0.0625 kg/ha)
3.5: TRZAWR herbicidal rating ([2]; rate 0.0625 kg/ha)
4.0: IPOSS herbicidal rating ([1]; rate 0.1250 kg/ha) | GLXMA herbicidal rating (GLXMA (Soybean) [8]; rate 0.1250 kg/ha) | GLXMA herbicidal rating (GLXMA (Soybean) [8]; rate 0.2500 kg/ha) | CHEAL preemergence herbicidal rating ([3]; rate 0.0625 kg/ha) | Herbicidal rating MOOVA (MOOVA (Monochoria); rate 0.5000 kg/ha)
0.0: AMBEL herbicidal rating (AMBEL (Ragweed, Common); rate 0.0157 kg/ha) | AMBEL herbicidal rating (AMBEL (Ragweed, Common); rate 0.0313 kg/ha) | AMBEL herbicidal rating (AMBEL (Ragweed, Common); rate 0.0625 kg/ha) | AMBEL herbicidal rating (AMBEL (Ragweed, Common); rate 0.1250 kg/ha) | GALAP herbicidal rating (GALAP (Galium); rate 0.0157 kg/ha) | IPOSS herbicidal rating ([1]; rate 0.0157 kg/ha) | IPOSS preemergence herbicidal rating ([4]; rate 0.0625 kg/ha) | IPOSS preemergence herbicidal rating ([4]; rate 0.1250 kg/ha) | IPOSS preemergence herbicidal rating ([4]; rate 0.2500 kg/ha) | IPOSS preemergence herbicidal rating ([4]; rate 0.5000 kg/ha) | Herbicidal rating SAGPY ([6]; rate 0.1250 kg/ha) | Herbicidal rating SAGPY ([6]; rate 0.2500 kg/ha) | Herbicidal rating SAGPY ([6]; rate 0.5000 kg/ha)
2.0: AMBEL herbicidal rating (AMBEL (Ragweed, Common); rate 0.2500 kg/ha) | GALAP herbicidal rating (GALAP (Galium); rate 0.0313 kg/ha) | IPOSS herbicidal rating ([1]; rate 0.0625 kg/ha) | GLXMA preemergence herbicidal rating (GLXMA (Soybean) [9]; rate 0.2500 kg/ha) | GLXMA preemergence herbicidal rating (GLXMA (Soybean) [9]; rate 0.5000 kg/ha) | Herbicidal rating MOOVA (MOOVA (Monochoria); rate 0.2500 kg/ha)
5.0: TRZAWR herbicidal rating ([2]; rate 0.2500 kg/ha) | CHEAL preemergence herbicidal rating ([3]; rate 0.1250 kg/ha)
